Data from US6420399B1, “Topical ophthalmic mast cell stabilizers for treating allergic eye disease” (Alcon Manufacturing, Ltd., priority 1999, dated 2002).

Experiments:
[1] = Surface Activity Rating: change in surface pressure of SOPC monolayer in Langmuir trough; type: physicochemical; settings: initial surface pressure 30 mN/m, 24° C.
Excerpt: The Surface Activity Rating is obtained by determining the interaction of an amphipathic anti-allergy drug (“test compound”) in buffer alone with a phospholipid monolayer. Test compound/mast cell membrane interaction is mimicked in a phospholipid monolayer spread onto an aqueous buffer in a modified Langmuir trough. In this system, test compound-membrane interaction is quantified by determining the change in surface pressure (Δπ in mN/m) of a monomolecular film of 1-stearoyl-2-oleoyl-sn-glycero-3-phosphocholine (SOPC) spread at an initial surface pressure of 28-32 mN/m on an aqueous buffer sub-phase. The initial surface pressure of 28-32 mN/m is chosen because this pressure mimics that of most mammalian cell membranes. […]
Surface pressure is measured using an automated interfacial monitor-controller built around a Cahn 27 electrobalance equipped with a 24 ga. nichrome wire Wilhelmy probe. […]
The effect of test compound on surface pressure is determined by a continuous exchange of the aqueous phase with a concentrated solution of the test compound in buffer. […] The concentration of test compound in the aqueous phase is determined from the fraction of sub-phase volume exchanged and the concentration of the solute in the concentrated solution. […]

mast cells = settings: concentrations higher than those with antihistaminic / stabilizing activity; cited from earlier work
[2] = test system: human conjunctival mast cells; settings: purified preparations of human conjunctival mast cells; Yanni et al. 1996; cited from earlier work

Structure (SMILES) | increase in surface pressure (Surface Activity Rating) ([1]; pH 7.5, concentration in aqueous sub-phase increased from 0 to 5 mM) [mN/m] | effect on histamine release from mast cells as a function of concentration (mast cells) | effect on histamine release as a function of concentration [2] | increase in surface pressure (Surface Activity Rating) ([1]; pH 7.5, concentration range of 0-3.5 mM) [mN/m]
CN(C)CC/C=C1/c2ccccc2COc2ccc(CC(=O)O)cc21 [olopatadine, Z-11-(3-dimethylaminopropylidene)-6,11-dihydrodibenz[b,e]oxepin-2-acetic acid] | 7.1 | does not provoke a release of histamine from mast cells |  | 
O=C(O)c1cc(=O)c2c(OCC(O)COc3cccc4oc(C(=O)O)cc(=O)c34)cccc2o1 [cromolyn sodium] |  | biphasic behavior |  | 
CN1CCC(=C2c3ccccc3CC(=O)c3sccc32)CC1 [ketotifen, 4,9-dihydro-4-(1-methyl-4-piperidinyl-idene)-10H-benzo[4,5]cyclohepta-[1,2-b]thiophen-10-one] |  |  | biphasic behavior | 15
